Measurements taken from patent publication US20100022491A1, “4-HYDROXY-2-OXO-2,3-DIHYDRO-1,3-BENZOTHIAZOL-7YL COMPOUNDS FOR MODULATION OF B2-ADRENORECEPTOR ACTIVITY” (ASTRAZENECA AB, priority 2006, published 2010).
Structures can show the parent of a compound that is named as a salt.

Assays:
Adrenergic β2 = biological target: T1, Adrenergic β2 (Homo sapiens, UniProt P07550); test: Adrenergic β2 mediated cAMP production in H292 cells; format: cell-based; settings: for EC50: read-out: β2 pEC50 (converted); for β2 Int Act: Intrinsic Activity as a fraction relative to the maximum activity determined for formoterol
T1 construct: Adherent H292 cells were removed from tissue culture flasks; endogenous in cells; host or cells: H292 cells
T1 sequence (P07550 whole entry): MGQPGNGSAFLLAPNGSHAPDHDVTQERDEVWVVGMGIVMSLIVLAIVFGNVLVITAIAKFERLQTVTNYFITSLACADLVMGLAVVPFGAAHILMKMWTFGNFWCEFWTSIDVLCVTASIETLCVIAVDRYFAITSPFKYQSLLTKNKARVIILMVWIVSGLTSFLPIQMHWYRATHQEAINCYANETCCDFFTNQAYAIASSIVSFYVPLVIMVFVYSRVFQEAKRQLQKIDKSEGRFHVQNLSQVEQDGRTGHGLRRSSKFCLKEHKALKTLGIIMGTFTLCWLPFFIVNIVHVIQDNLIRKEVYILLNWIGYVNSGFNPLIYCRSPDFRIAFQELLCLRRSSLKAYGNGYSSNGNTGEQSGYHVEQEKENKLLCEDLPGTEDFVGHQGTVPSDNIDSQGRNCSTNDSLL
Method in brief: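 H292 cells pretreated 10 min with rolipram (300 μM final), then exposed to agonist 60 min at room temperature in HEPES-buffered HBSS, 1.6% DMSO final. Lysate cAMP quantified by AlphaScreen against a cAMP standard curve; four-parameter fit gives pEC50 and intrinsic activity relative to formoterol maximum.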

[1] = biological target: T2, recombinant human adrenergic beta 1 receptors (Homo sapiens, UniProt P08588); test: Adrenergic β1 selectivity binding assay ([125I]-Iodocyanopindolol); settings: inhibition of [125I]-Iodocyanopindolol (0.036 nM) binding; for IC50: read-out: β1 bind p IC50 (converted)
T2 construct: purchased Euroscreen
T2 sequence (P08588 whole entry): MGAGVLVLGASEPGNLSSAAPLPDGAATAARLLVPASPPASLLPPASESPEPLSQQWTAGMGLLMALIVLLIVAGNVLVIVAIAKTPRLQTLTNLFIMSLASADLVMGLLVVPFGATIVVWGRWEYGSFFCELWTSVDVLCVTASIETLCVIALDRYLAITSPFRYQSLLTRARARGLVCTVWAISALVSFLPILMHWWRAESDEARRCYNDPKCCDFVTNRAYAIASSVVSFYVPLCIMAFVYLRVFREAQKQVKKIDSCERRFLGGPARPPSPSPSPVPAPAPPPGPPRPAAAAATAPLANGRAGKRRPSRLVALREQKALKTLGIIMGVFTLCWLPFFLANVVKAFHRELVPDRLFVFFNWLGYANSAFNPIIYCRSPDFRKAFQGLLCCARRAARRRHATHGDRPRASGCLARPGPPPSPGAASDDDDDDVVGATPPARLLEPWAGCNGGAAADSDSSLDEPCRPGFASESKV
Method in brief: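 Recombinant human β1 membranes in HEPES buffer pH 7.4 with 120 mM NaCl were incubated 2 hours at room temperature with 0.036 nM [^125I]-Iodocyanopindolol. Nonspecific binding defined by 10 μM propranolol; bound radioactivity counted after filtration. pIC50 from four-parameter logistic fit.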

[2] = biological target: T3, recombinant human Dopamine Subtype D2s receptors (Homo sapiens, UniProt P14416); test: Dopamine D2 selectivity binding assay ([3H]-spiperone); settings: inhibition of [3H]-spiperone (0.16 nM) binding; for IC50: read-out: D2 bind pIC50 (converted)
T3 construct: purchased Perkin Elmer
T3 sequence (P14416 1-414 isoform P14416-2): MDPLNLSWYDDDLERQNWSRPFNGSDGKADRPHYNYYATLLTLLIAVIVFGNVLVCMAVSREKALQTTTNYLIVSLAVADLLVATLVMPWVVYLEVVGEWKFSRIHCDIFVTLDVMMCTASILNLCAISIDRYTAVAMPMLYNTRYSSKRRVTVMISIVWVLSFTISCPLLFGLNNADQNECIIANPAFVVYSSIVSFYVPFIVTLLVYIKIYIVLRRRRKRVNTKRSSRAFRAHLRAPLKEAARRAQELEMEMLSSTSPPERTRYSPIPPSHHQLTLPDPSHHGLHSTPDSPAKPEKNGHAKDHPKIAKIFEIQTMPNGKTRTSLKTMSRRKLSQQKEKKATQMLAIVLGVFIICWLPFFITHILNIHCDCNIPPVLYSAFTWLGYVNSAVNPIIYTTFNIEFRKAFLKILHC
Method in brief: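 Recombinant human D2s membranes incubated 2 h at room temperature with 0.16 nM [3H]-spiperone in HEPES/EDTA/NaCl/gelatin buffer, pH 7.4; 10 μM haloperidol defined non-specific binding. Filter-bound radioactivity counted after cold washes. pIC50 from 4-parameter logistic fit of NSB-corrected specific binding.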

[3] = H292 cells, cAMP by AlphaScreen, 60 minutes at room temperature, rolipram 300 μM

Structure (SMILES) | EC50 (Adrenergic β2; [3]) [µM] | β2 Int Act (Adrenergic β2) | IC50 [1] [µM] | IC50 [2] [µM] | β2 pEC50 (Adrenergic β2; [3]) | β1 bind p IC50 [1] | D2 bind pIC50 [2] | β2 Int Act (Adrenergic β2; dihydrobromide salt)
CC(C)(C)CN(CCNCCc1ccc(O)c2[nH]c(=O)sc12)C(=O)CCNCCc1ccc(Cl)c(Cl)c1 [Example 9, N^3-[2-(3,4-Dichlorophenyl)ethyl]-N-(2,2-dimethylpropyl)-N-(2-{[2-(4-hydroxy-2-oxo-2,3-dihydro-1,3-benzothiazol-7-yl)ethyl]amino}ethyl)-β-alaninamide bis-trifluoroacetic acid salt] | 0.00794 | 0.65 | 5.01 | 0.251 |  |  |  | 
O=C(CCNCCc1cccc(F)c1F)N(CCNCCc1ccc(O)c2[nH]c(=O)sc12)C1CCCCC1 [Example 81, N^1-Cyclohexyl-N^3-[2-(2,3-difluorophenyl)ethyl]-N^1-(2-{[2-(4-hydroxy-2-oxo-2,3-dihydro-1,3-benzothiazol-7-yl)ethyl]amino}ethyl)-β-alaninamide bis-trifluoroacetic acid salt] | 0.00251 | 0.89 | 6.31 | 0.316 |  |  |  | 
O=C(CCNCCc1ccc(Cl)cc1)N(CCNCCc1ccc(O)c2[nH]c(=O)sc12)C1CCOCC1 [Example 26, N^3-[2-(4-Chlorophenyl)ethyl]-N-(2-{[2-(4-hydroxy-2-oxo-2,3-dihydro-1,3-benzothiazol-7-yl)ethyl]amino}ethyl)-N-(tetrahydro-2H-pyran-4-yl)-β-alaninamide bis-trifluoroacetic acid salt] | 0.00794 | 0.83 | 5.01 | 1 |  |  |  | 
O=C(CCNCCc1ccccc1)N(CCNCCc1ccc(O)c2[nH]c(=O)sc12)C1CCCCCC1 [Example 98, N-Cycloheptyl-N-(2-{[2-(4-hydroxy-2-oxo-2,3-dihydro-1,3-benzothiazol-7-yl)ethyl]amino}ethyl)-N^3-(2-phenylethyl)-β-alaninamide dihydrobromide salt] | 0.00158 |  | 2 | 0.158 |  |  |  | 0.8
O=C(CCNCCc1ccc(Cl)cc1)N(CCNCCc1ccc(O)c2[nH]c(=O)sc12)C1CCC(F)(F)CC1 [Example 48, N^3-[2-(4-Chlorophenyl)ethyl]-N^1-(4,4-difluorocyclohexyl)-N^1-(2-{[2-(4-hydroxy-2-oxo-2,3-dihydro-1,3-benzothiazol-7-yl)ethyl]amino}ethyl)-β-alaninamide bis-trifluoroacetic acid salt] | 0.01 | 0.55 | 2.51 | 0.1 |  |  |  | 
O=C(CCNCCc1ccc(Cl)c(Cl)c1)N(CCNCCc1ccc(O)c2[nH]c(=O)sc12)C1CCOCC1 [Example 24, N^3-[2-(3,4-Dichlorophenyl)ethyl]-N-(2-{[2-(4-hydroxy-2-oxo-2,3-dihydro-1,3-benzothiazol-7-yl)ethyl]amino}ethyl)-N-(tetrahydro-2H-pyran-4-yl)-β-alaninamide bis-trifluoroacetic acid salt] | 0.00794 | 0.77 | 2 | 0.794 |  |  |  | 
O=C(CCNCCc1cccc(F)c1)N(CCNCCc1ccc(O)c2[nH]c(=O)sc12)C1CCCCCC1 [Example 95, N-Cycloheptyl-N^3-[2-(3-fluorophenyl)ethyl]-N-(2-{[2-(4-hydroxy-2-oxo-2,3-dihydro-1,3-benzothiazol-7-yl)ethyl]amino}ethyl)-β-alaninamide dihydromide salt] |  |  |  |  | 8.6 | 5.5 | 6.7 | 

More lines, main results first:

EC50 (Adrenergic β2; [3]) [µM] | β2 Int Act (Adrenergic β2) | IC50 [1] [µM] | IC50 [2] [µM] | β2 pEC50 (Adrenergic β2; [3]) | β1 bind p IC50 [1] | D2 bind pIC50 [2] | Structure (SMILES) | β2 Int Act (Adrenergic β2; dihydrobromide salt)
0.002 | 0.82 | 6.31 | 0.1 |  |  |  | NS(=O)(=O)c1ccc(CCNCCC(=O)N(CCNCCc2ccc(O)c3[nH]c(=O)sc23)C2CCCCC2)cc1 [Example 69, N^3-{2-[4-(Aminosulfonyl)phenyl]ethyl}-N^1-cyclohexyl-N^1-(2-{[2-(4-hydroxy-2-oxo-2,3-dihydro-1,3-benzothiazol-7-yl)ethyl]amino}ethyl)-β-alaninamide bis-trifluoroacetic acid salt] | 
0.00501 | 0.85 | 7.94 | 0.2 |  |  |  | O=C(CCNCCc1ccc(F)c(F)c1)N(CCNCCc1ccc(O)c2[nH]c(=O)sc12)C1CCCCC1 [Example 73, N^1-Cyclohexyl-N^3-[2-(3,4-difluorophenyl)ethyl]-N^1-(2-{[2-(4-hydroxy-2-oxo-2,3-dihydro-1,3-benzothiazol-7-yl)ethyl]amino}ethyl)-β-alaninamide bis-trifluoroacetic acid salt] | 
0.158 | 0.54 | 6.31 | 0.158 |  |  |  | O=C(CCNCCc1nc2ccccc2[nH]1)N(CCNCCc1ccc(O)c2[nH]c(=O)sc12)C1CCCCC1 [Example 77, N^3-[2-(1H-Benzimidazol-2-yl)ethyl]-N^1-cyclohexyl-N^1-(2-{[2-(4-hydroxy-2-oxo-2,3-dihydro-1,3-benzothiazol-7-yl)ethyl]amino}ethyl)-β-alaninamide tris-trifluoroacetic acid salt] | 
0.00398 | 0.68 | 3.16 | 0.316 |  |  |  | CC(C)(C)CN(CCNCCc1ccc(O)c2[nH]c(=O)sc12)C(=O)CCNCCc1cccc(Cl)c1 [Example 7, N^3-[2-(3-Chlorophenyl)ethyl]-N-(2,2-dimethylpropyl)-N-(2-{[2-(4-hydroxy-2-oxo-2,3-dihydro-1,3-benzothiazol-7-yl)ethyl]amino}ethyl)-β-alaninamide bis-trifluoroacetic acid salt] | 
0.0794 | 0.67 | 7.94 | 0.398 |  |  |  | CC(C)(CNCCC(=O)N(CCNCCc1ccc(O)c2[nH]c(=O)sc12)C1CCCC1)c1ccccc1 [Example 32, N-cyclopentyl-N-(2-{[2-(4-hydroxy-2-oxo-2,3-dihydro-1,3-benzothiazol-7-yl)ethyl]amino}ethyl)-N^3-(2-methyl-2-phenylpropyl)-β-alaninamide bis-trifluoroacetic acid salt] | 
0.00631 | 0.87 | 0.398 | 0.398 |  |  |  | O=C(CCNCCc1ccccc1)N(CCNCCc1ccc(O)c2[nH]c(=O)sc12)C1CCSCC1 [Example 62, N-(2-{[2-(4-Hydroxy-2-oxo-2,3-dihydro-1,3-benzothiazol-7-yl)ethyl]amino}ethyl)-N^3-(2-phenylethyl)-N^1-(tetrahydro-2H-thiopyran-4-yl)-β-alaninamide bis-trifluoroacetic acid salt] | 
0.00398 | 0.84 | 7.94 | 0.501 |  |  |  | Cc1cccc(CCNCCC(=O)N(CCNCCc2ccc(O)c3[nH]c(=O)sc23)C2CCCCC2)c1 [Example 14, N-Cyclohexyl-N-(2-{[2-(4-hydroxy-2-oxo-2,3-dihydro-1,3-benzothiazol-7-yl)ethyl]amino}ethyl)-N^3-[2-(3-methylphenyl)ethyl]-β-alaninamide bis-trifluoroacetic acid salt] | 
0.0794 | 0.93 | 2.51 | 0.2 |  |  |  | CCCC(CCC)N(CCNCCc1ccc(O)c2[nH]c(=O)sc12)C(=O)CCNCCc1cccc(F)c1 [Example 63, N^3-[2-(3-Fluorophenyl)ethyl]-N^1-(2-{[2-(4-hydroxy-2-oxo-2,3-dihydro-1,3-benzothiazol-7-yl)ethyl]amino}ethyl)-N^1-(1-propylbutyl)-β-alaninamide bis-trifluoroacetic acid salt] | 
0.0126 | 0.59 | 1 | 0.398 |  |  |  | CC(C)(CO)CN(CCNCCc1ccc(O)c2[nH]c(=O)sc12)C(=O)CCNCCc1ccccc1Cl [Example 65, N^3-[2-(2-Chlorophenyl)ethyl]-N^1-(3-hydroxy-2,2-dimethylpropyl)-N^1-(2-{[2-(4-hydroxy-2-oxo-2,3-dihydro-1,3-benzothiazol-7-yl)ethyl]amino}ethyl)-β-alaninamide bis-trifluoroacetic acid salt] | 
0.00316 | 0.78 | 1.58 | 0.0398 |  |  |  | O=C(CCNCCc1ccccc1Cl)N(CCNCCc1ccc(O)c2[nH]c(=O)sc12)C1CCC(F)(F)CC1 [Example 46, N^3-[2-(2-Chlorophenyl)ethyl]-N^1-(4,4-difluorocyclohexyl)-N^1-(2-{[2-(4-hydroxy-2-oxo-2,3-dihydro-1,3-benzothiazol-7-yl)ethyl]amino}ethyl)-β-alaninamide bis-trifluoroacetic acid salt] | 
0.01 | 0.92 | 6.31 | 0.251 |  |  |  | C[C@H](CNCCC(=O)N(CCNCCc1ccc(O)c2[nH]c(=O)sc12)C1CCCC1)c1ccccc1 [Example 31, N-cyclopentyl-N-(2-{[2-(4-hydroxy-2-oxo-2,3-dihydro-1,3-benzothiazol-7-yl)ethyl]amino}ethyl)-N^3-[(2S)-2-phenylpropyl]-β-alaninamide bis-trifluoroacetic acid salt] | 
